Measured values from patent publication US10716753B2, “Compositions for pulmonary delivery of long-acting muscarinic antagonists or long-acting B2 adrenergic receptor agonists and associated methods and systems” (priority 2009, dated 2020).

Legend:
[1] = Visual observation of suspension quality / co-suspension in glass vials, incl. centrifugation; assay type: physicochemical; conditions: glass vials heated to 30° C.-35° C.
Description: Exemplary methods for assessing whether a co-suspension is present can include the following: If one particle type has a pycnometric density greater than the propellant and another particle type has a pycnometric density lower than the propellant, a visual observation of the creaming or sedimentation behavior can be employed to determine the presence of a co-suspension. The term “pycnometric density” refers to the density of a material that makes up a particle, excluding voids within the particle. In one embodiment, the materials can be formulated or transferred into a transparent vial, typically a glass vial, for visual observation. After initial agitation the vial is left undisturbed for a sufficient time for formation of a sediment or cream layer, typically 24 hours. If the sediment or cream layer is observed to be completely or mostly a uniform single layer, a co-suspension is present.
Metered dose inhalers were prepared by weighing the target masses of micronized GP particles and suspending particles into fluorinated ethylene polymer (FEP) coated aluminum canisters (Presspart, Blackburn, UK) with 19 mL volume. […]

[2] = Aerosol performance by Next Generation Impactor, USP <601> (fine particle fraction, MMAD); assay type: physicochemical
Description: A Next Generation Impactor (NGI) operated at a flow rate of 30 L/min was used for determination of particle size distribution. Sample canisters were seated into an actuator with two waste actuations and two additional waste priming actuations. Five actuations were collected in the NGI with a USP throat attached. The valve, actuator, throat, NGI cups, stages, and filter were rinsed with volumetrically dispensed solvent. The sample solutions were assayed using a drug specific chromatographic method. The fine particle fraction was defined using the sum of stages 3 through filter. […] Inhalers were seated and primed as described before. Two actuations were collected and assayed at beginning, middle and end of use.
A Next Generation Impactor (NGI) operated at a flow rate of 30 L/min was used for determination of particle size distribution. Sample canisters were seated into an actuator with two waste actuations and two additional waste priming actuations. Five actuations were collected in the NGI with a USP throat attached. The valve, actuator, throat, NGI cups, stages, and filter were rinsed with volumetrically dispensed solvent. The sample solutions were assayed using a drug specific chromatographic method. The fine particle fraction was defined using the sum of stages 3 through filter. […] Two actuations were collected and assayed at beginning, middle and end of use.
A Next Generation Impactor (NGI) operated at a flow rate of 30 L/min was used for determination of particle size distribution. Sample canisters were seated into an actuator with two waste actuations and two additional waste priming actuations. Five actuations were collected in the NGI with a USP throat attached. The valve, actuator, throat, NGI cups, stages, and filter were rinsed with volumetrically dispensed solvent. The sample solutions were assayed using a drug specific chromatographic method. The fine particle fraction was defined using the sum of stages 3 through filter.

[3] = test system: patients with mild to moderate COPD; assay: Multi-center crossover clinical trial, single administration: FEV1 spirometry; assay type: in vivo, human; conditions: all doses of Glycopyrrolate MDI; tiotropium 18 μg
[4] = co-suspension MDI: 2 mg SX, 60 mg suspending particles, 10 mL HFA 134a

OCc1cc(C(O)CNCCCCCCOCCCCc2ccccc2)ccc1O (stereo not drawn) [SX, 4-hydroxy-α1-[[[6-(4-phenylbutoxy)hexyl]amino]methyl]-1,3-benzenedimethanol, 1-hydroxy-2-naphthalenecarboxylate]
Visual observation of active agent particles formulated alone [1]: sedimented rapidly
Visual observation of co-suspension vial [1]: no SX crystals were visible at the bottom
Fine particle fraction [2, 4]: 48%
MMAD [2, 4]: 3.7 μm

C[N+]1(C)CCC(OC(=O)C(O)(c2ccccc2)C2CCCC2)C1.[Br-] (stereo not drawn) [glycopyrrolate, Pyrrolidinium, 3-((cyclopentylhydroxyphenylacetyl)oxy)-1,1-dimethyl-, bromide]
Fine particle fraction ([2]; 24 μg per actuation co-suspension MDI, initially): 59.3%

C[N+]1(C)[C@@H]2C[C@@H](OC(=O)C(O)(c3cccs3)c3cccs3)C[C@H]1[C@@H]1O[C@@H]12 [tiotropium]
Mean time to ≥10% improvement in FEV1 [3]: approximately 3 hour
